Measured values reported in patent US5506207A, “GNRH antagonists XIII” (The Salk Institute for Biological Studies, priority 1994, dated 1996).
“Also recorded” adds a separate entry of the source. Square brackets hold non-standard residues; d marks the D form. Peptide text beside a SMILES is read from it. * marks the point of attachment. dPhe(4-NH2) = Nc1ccc(C[C@@H](N)C(=O)O)cc1; dPhe(4-Cl) = N[C@H](Cc1ccc(Cl)cc1)C(=O)O; Phe(4-NH2) = Nc1ccc(C[C@H](N)C(=O)O)cc1; d2Nal = N[C@H](Cc1ccc2ccccc2c1)C(=O)O; Lys(iPr) = CC(C)NCCCC[C@H](N)C(=O)O; d3Pal = N[C@H](Cc1cccnc1)C(=O)O; X1 = Nc1n[nH]c(NCC(=O)*)n1

Tests used:
[1] = test system: mature female Sprague-Dawley rats; test: examination of treated rats for tolerance and gelling at the point of injection; assay type: in vivo, rat; settings: rats injected with peptide in bacteriostatic water
[2] = solubility in aqueous buffers; assay type: physicochemical; settings: pH from about 5 to about 7

Question: What does the source list for `CC(=O)N[C@H](Cc1ccc2ccccc2c1)C(=O)N[C@H](Cc1ccc(Cl)cc1)C(=O)N[C@H](Cc1cccnc1)C(=O)N[C@@H](CO)C(=O)N[C@@H](Cc1ccc(NC(=O)CNc2nc(N)n[nH]2)cc1)C(=O)N[C@H](Cc1ccc(NC(=O)CNc2nc(N)n[nH]2)cc1)C(=O)N[C@@H](CC(C)C)C(=O)N[C@@H](CCCCNC(C)C)C(=O)N1CCC[C@H]1C(=O)N[C@H](C)C(N)=O` [Peptide No. 1, [Ac-β-D-2NAL^1, (4Cl)D-Phe^2, D-3PAL^3, Aph(Gly)(atz)^5, D-Aph(Gly)(atz)^6, ILys^8, D-Ala^10]-GnRH] (Ac-[d2Nal][dPhe(4-Cl)][d3Pal]S[Phe(4-NH2)](X1)[dPhe(4-NH2)](X1)L[Lys(iPr)]P[dA]-NH2)?
Answer: tolerance and gelling at the point of injection [1]: very well tolerated with no significant gelling at the point of injection being detectable; also recorded: resistance to in vivo gelling; solubility in aqueous buffers [2]: solubility in aqueous buffers at a pH of from about 5 to about 7
